Paper PMC11025614 (Pharmacology Research & Perspectives, 2024)

Legend:
[1] = oral midazolam with fluconazole; cited from earlier work
[2] = Therapeutic drug monitoring of sirolimus trough concentration; type: in vivo, human
PopPK modeling = type: in vivo, human; conditions: for Vd: female, human, blood, oral
[3] = cited from earlier work

| Structure (SMILES) | increase of AUC [1] | increase of C max [1] | sirolimus C min ([2]; 4.5 mg twice daily with fluconazole 400 mg/day) | sirolimus C min ([2]; 9 mg daily with oral fluconazole 400 mg once daily, day 3 after initiation) | sirolimus C min ([2]; after 1 week of 9 mg/day (assumed steady-state), no fluconazole) | sirolimus concentrations ([2]; afterward, during fluconazole, for more than 4 weeks) | mean sirolimus C min ([2]; maintenance dose 9 mg sirolimus/day, before fluconazole) | CL1 (apparent oral clearance, clearance from central compartment) (PopPK modeling; before fluconazole) | CL2 (clearance between central and peripheral compartments) (PopPK modeling; before fluconazole) | V 2 (volume of distribution of peripheral compartment) (PopPK modeling; before fluconazole) | CL1 (apparent oral clearance, clearance from central compartment) (PopPK modeling; during fluconazole) | CL2 (clearance between central and peripheral compartments) (PopPK modeling; during fluconazole) | V 2 (volume of distribution of peripheral compartment) (PopPK modeling; during fluconazole) | Vd (PopPK modeling) | Vd (PopPK modeling; 5 mg/day) | variation in apparent oral clearance between patients ([3]; ciclosporin and prednisone coadministered) | apparent oral sirolimus clearance, population mean ([3]; estimated by Wu and coworkers) |
| --- | --- | --- | --- | --- | --- | --- | --- | --- | --- | --- | --- | --- | --- | --- | --- | --- | --- |
| Cc1ncc2n1-c1ccc(Cl)cc1C(c1ccccc1F)=NC2 [midazolam] | 270% | 130% | – | – | – | – | – | – | – | – | – | – | – | – | – | – | – |
| CO[C@H]1C[C@@H]2CC[C@@H](C)[C@@](O)(O2)C(=O)C(=O)N2CCCC[C@H]2C(=O)O[C@H]([C@H](C)C[C@@H]2CC[C@@H](O)[C@H](OC)C2)CC(=O)[C@H](C)/C=C(\C)[C@@H](O)[C@@H](OC)C(=O)[C@H](C)C[C@H](C)/C=C/C=C/C=C/1C [sirolimus] | – | – | 8.2 ng/mL | 4.7 ng/mL | 2.9 to 4.2 ng/mL | 3.1 to 9.5 ng/mL | 3.5 ng/mL | 30.7 L/h | 253 L/h | 305 L | 14.1 L/h | 8.56 L/h | 361 L | 81.3 L | 33.7 L | 4.5 fold | 12.9 L/h |
